Results: patent US20230250077A1, “SULFONYLBENZAMIDE DERIVATIVE AND CONJUGATE THEREOF, PREPARATION METHOD THEREFOR AND USE THEREOF” (Jiangsu Hengrui Pharmaceuticals Co., Ltd., priority 2020, published 2023)

Key:
[1] = target: T1, BCL-2 (Homo sapiens, UniProt P10415); assay: Binding activity for BCL-2 (HTRF, biotin-labeled BIM); conditions: His-tagged BCL-2, biotin-labeled BIM
T1 construct: purchased R&D systems 827-BC-050
Method: In vitro BCL-2-binding activity was tested by the following method.
(§1) Reagents used in this experiment: His-tagged BCL-2 protein (R&D systems, Cat #827-BC-050); biotin-labeled BIM protein (R&D, Cat #3526/1); binding buffer (cisbio, Cat #62DLBDDF); assay buffer (cisbio, Cat #62DB1FDG); MAb anti-6His-Eu cryptate (cisbio, Cat #61HI2KLA); and affinity streptomycin linked XL665 (cisbio, Cat #611SAXLA).
The in vitro binding assay described below can determine the binding activity of test compounds for BCL-2.
(§2) The test compounds were dissolved in dimethyl sulfoxide and diluted to gradient concentrations as required for the experiment, and the compounds at various concentrations formulated in dimethyl sulfoxide were subjected to a 100-fold dilution with a binding buffer. BCL-2 was diluted to the corresponding concentration with a binding buffer solution, and added to a white 384-well plate at 4 μL/well. Then the diluted test compound was added into the white 384-well plate at 2 μL/well. The plate was incubated at 25° C. for 1 h after the mixture was uniformly mixed. Biotin-labeled BIM protein was diluted to the corresponding concentration with a binding buffer, and added to a white 384-well plate at 4 μL/well. The plate was incubated at 25° C. for 2 h after the mixture was uniformly mixed. The MAb anti-6His-Eu cryptate and the affinity streptomycin linked XL665 were each diluted to the corresponding concentration with an assay buffer, and added to a white 384-well plate at 5 μL/well. The plate was incubated at 25° C. for 2-4 h after the mixture was uniformly mixed. The signal values were read with the HTRF program in a microplate reader (BMG Labtech, model: PHERAstar FS).

[2] = tested on: RS4;11 cells; assay: Inhibition of proliferation of RS4;11 cells (CellTiter-Glo); format: cell-based; conditions: Homo sapiens, 72 h, 3 days, read-out: Inhibitory activity IC50 (nM) for the proliferation of RS4;11 cells
Method: (§3) In vitro inhibitory activity for the proliferation of RS4;11 cells and NCI-H146 cells was tested by the following method.
(§4) Reagents used in this experiment: RPMI-1640 medium (HyCLone, Cat #SH30243018); fetal bovine serum (Gibco, Cat #10099-141); pancreatin (Gibco, Cat #25200-072); Cell Titer-Glo (Promega, Cat #G7571).
(§5) Materials used: RS4;11 cells (Nanjing Kebai Biotechnology Co., Ltd, Cat #CBP60641); and NCI-H146 cells (ATCC, Cat #HTB-173).
(§6) The in vitro cell proliferation assay described below can determine the inhibitory activity of the test compounds for the proliferation of RS4;11 cells and NCI-H146 cells.
(§7) RS4;11 cells (or NCI-H146 cells) were cultured in an RPMI-1640 culture medium containing 10% FBS, and were passaged for 2-3 times a week in a passage ratio of 1:3 or 1:5. During passage, the cells were transferred to a centrifuge tube, and centrifuged at 1200 rpm for 3 min. The supernatant was discarded, and fresh culture medium was added to resuspend the cells. 90 μL of cell suspension was added to a 96-well cell culture plate, wherein RS4;11 cells and NCI-H146 cells were added at a density of 2.22×10^5 cells/mL. Only 100 μL of complete medium (RPMI-1640 medium containing 10% FBS) was added to the periphery of the 96-well plate. The plate was incubated in an incubator for 24 h (37° C., 5% CO2).
(§8) The test sample was diluted to a proper concentration gradient with dimethyl sulfoxide as required for the experiment. 5 μL of the solution of the test compound prepared in a gradient concentration was added to 95 μL of fresh culture medium and mixed uniformly, and then 10 μL of the culture medium containing the above compound was added to a cell culture plate. The cell culture plate was incubated in an incubator for 3 days (37° C., 5% CO2). 50 μL of CellTiter-Glo reagent was added into each well of the 96-well cell culture plate. The plate was let stand for 5-10 min away from the light at room temperature. The chemiluminescence signals were read by a microplate reader (BMG Labtech, model: PHERAstar FS) and the data were processed by GraphPad software.

[3] = tested on: NCI-H146 cells; assay: Inhibition of proliferation of NCI-H146 cells (CellTiter-Glo); format: cell-based; conditions: Homo sapiens, 72 h, 3 days, read-out: Inhibitory activity IC50 (nM) for the proliferation of NCI-H146 cells
Method: as §3, §4, §5, §6, §7, §8

[4] = target: T2, BCL-xL (Homo sapiens, UniProt Q07817); assay: Binding activity for BCL-xL (HTRF, biotin-labeled BIM); conditions: His-tagged BCL-xL
T2 construct: purchased R&D 894-BX-050
Method: In vitro BCL-xL-binding activity was tested by the following method.
as §1, with “BCL-xL” for “BCL-2”, “(R&D,” for “(R&D systems,”, “#894-BX-050);” for “#827-BC-050);”
The in vitro binding assay described below can determine the binding activity of test compounds for BCL-xL.
as §2, with “BCL-xL” for “BCL-2”, “buffer,” for “buffer solution,”, “to” for “into”

T1 sequence (P10415 whole entry): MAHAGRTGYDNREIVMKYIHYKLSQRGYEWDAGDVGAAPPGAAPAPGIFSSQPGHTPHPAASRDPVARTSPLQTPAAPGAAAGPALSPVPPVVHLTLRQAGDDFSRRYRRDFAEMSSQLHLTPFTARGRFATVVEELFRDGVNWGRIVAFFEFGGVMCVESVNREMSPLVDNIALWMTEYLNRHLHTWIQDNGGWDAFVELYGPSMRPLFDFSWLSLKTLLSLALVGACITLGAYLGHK
T2 sequence (Q07817 whole entry): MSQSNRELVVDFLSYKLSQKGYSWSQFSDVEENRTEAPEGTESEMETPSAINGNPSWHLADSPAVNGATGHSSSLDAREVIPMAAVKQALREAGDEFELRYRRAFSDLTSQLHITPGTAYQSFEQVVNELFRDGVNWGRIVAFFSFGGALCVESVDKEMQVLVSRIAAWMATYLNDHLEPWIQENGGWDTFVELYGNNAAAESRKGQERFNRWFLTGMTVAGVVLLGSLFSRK

## O=C(NS(=O)(=O)c1ccc(N[C@@H](CSc2ccccc2)C[C@H]2CCCN2CCCO)c(S(=O)(=O)C(F)(F)F)c1)c1ccc(N2CCC([C@@H](O)c3ccccc3-c3ccc(Cl)cc3)CC2)cc1 [Example 2-5, 4-(4-((R)-(4′-chloro-[1,1′-biphenyl]-2-yl)(hydroxy)methyl)piperidin-1-yl)-N-((4-(((R)-1-((R)-1-(3-hydroxypropyl)pyrrolidin-2-yl)-3-(phenylthio)propan-2-yl)amino)-3-((trifluoromethyl)sulfonyl)phenyl)sulfonyl)benzamide]
[1]
  Ki: 0.13 nM
[2]
  IC50: 9 nM
[3]
  IC50: 55 nM
[4]
  Ki: 0.45 nM

## O=C(NS(=O)(=O)c1ccc(N[C@@H](CSc2ccccc2)C[C@H]2CCCN2CCO)c(S(=O)(=O)C(F)(F)F)c1)c1ccc(N2CCC([C@@H](O)c3ccccc3-c3ccc(Cl)cc3)CC2)cc1 [Example 2-2, 4-(4-((R)-(4′-chloro-[1,1′-biphenyl]-2-yl)(hydroxy)methyl)piperidin-1-yl)-N-((4-(((R)-1-((R)-1-(2-hydroxyethyl)pyrrolidin-2-yl)-3-(phenylthio)propan-2-yl)amino)-3-((trifluoromethyl)sulfonyl)phenyl)sulfonyl)benzamide]
[1]
  Ki: 0.07 nM
[2]
  IC50: 7 nM
[3]
  IC50: 33 nM
[4]
  Ki: 0.24 nM

## CO[C@@H](c1ccccc1-c1ccc(Cl)cc1)C1CCN(c2ccc(C(=O)NS(=O)(=O)c3ccc(N[C@@H](CSc4ccccc4)C[C@H]4CCCN4)c(S(=O)(=O)C(F)(F)F)c3)cc2)CC1 [Example 2-3, 4-(4-((R)-(4′-chloro-[1,1′-biphenyl]-2-yl)(methoxy)methyl)piperidin-1-yl)-N-((4-(((R)-1-(phenylthio)-3-((R)-pyrrolidin-2-yl)propan-2-yl)amino)-3-((trifluoromethyl)sulfonyl)phenyl)sulfonyl)benzamide]
[1]
  Ki: 0.1 nM
[2]
  IC50: 58 nM
[3]
  IC50: 74 nM
[4]
  Ki: 0.17 nM

## O=C(NS(=O)(=O)c1ccc(N[C@@H](CSc2ccccc2)C[C@H]2CCCN2)c(S(=O)(=O)C(F)(F)F)c1)c1ccc(N2CCC([C@@H](O)c3ccccc3-c3ccc(Cl)cc3)CC2)cc1 [Example 2-1, 4-(4-((R)-(4′-chloro-[1,1′-biphenyl]-2-yl)(hydroxy)methyl)piperidin-1-yl)-N-((4-(((R)-1-(phenylthio)-3-((R)-pyrrolidin-2-yl)propan-2-yl)amino)-3-((trifluoromethyl)sulfonyl)phenyl)sulfonyl)benzamide]
[1]
  Ki: 0.07 nM
[2]
  IC50: 23 nM
[3]
  IC50: 36 nM
[4]
  Ki: 0.09 nM

## O=C(NS(=O)(=O)c1ccc(N[C@@H](CSc2ccccc2)C[C@@H]2CCCN2)c(S(=O)(=O)C(F)(F)F)c1)c1ccc(N2CCC([C@@H](O)c3ccccc3-c3ccc(C(F)(F)F)cc3)CC2)cc1 [Example 2-12, 4-(4-((R)-hydroxy(4′-(trifluoromethyl)-[1,1′-biphenyl]-2-yl)methyl)piperidin-1-yl)-N-((4-(((R)-1-(phenylthio)-3-((S)-pyrrolidin-2-yl)propan-2-yl)amino)-3-((trifluoromethyl)sulfonyl)phenyl)sulfonyl)benzamide]
[1]
  Ki: 0.04 nM
[4]
  Ki: 0.15 nM

## O=C(NS(=O)(=O)c1ccc(N[C@@H](CSc2ccccc2)C[C@@H]2CCCN2CCO)c(S(=O)(=O)C(F)(F)F)c1)c1ccc(N2CCC([C@@H](O)c3ccccc3-c3ccc(C(F)(F)F)cc3)CC2)cc1 [Example 2-13, 4-(4-((R)-hydroxy(4′-(trifluoromethyl)-[1,1′-biphenyl]-2-yl)methyl)piperidin-1-yl)-N-((4-(((R)-1-((S)-1-(2-hydroxyethyl)pyrrolidin-2-yl)-3-(phenylthio)propan-2-yl)amino)-3-((trifluoromethyl)sulfonyl)phenyl)sulfonyl)benzamide]
[1]
  Ki: 0.04 nM
[2]
  IC50: 7 nM
[3]
  IC50: 35 nM
[4]
  Ki: 0.3 nM

## CC(Sc1ccccc1)[C@@H](CCN(C)CCO)Nc1ccc(S(=O)(=O)NC(=O)c2ccc(N3CCC([C@@H](O)c4ccccc4-c4ccc(C(F)(F)F)cc4)CC3)cc2)cc1S(=O)(=O)C(F)(F)F (stereo partly drawn) [Example 2-7, 4-(4-((R)-hydroxy(4′-(trifluoromethyl)-[1,1′-biphenyl]-2-yl)methyl)piperidin-1-yl)-N-((4-(((3R)-1-((2-hydroxyethyl)(methyl)amino)-4-(phenylthio)pentan-3-yl)amino)-3-((trifluoromethyl)sulfonyl)phenyl)sulfonyl)benzamide]
[1]
  Ki: 0.34 nM

## O=C(NS(=O)(=O)c1ccc(N[C@@H](CSc2ccccc2)C[C@@H]2CCCN2)c(S(=O)(=O)C(F)(F)F)c1)c1ccc(N2CCC([C@@H](O)c3ccccc3-c3ccc(Cl)cc3)CC2)cc1 [Example 2-8, 4-(4-((R)-(4′-chloro-[1,1′-biphenyl]-2-yl)(hydroxy)methyl)piperidin-1-yl)-N-((4-(((R)-1-(phenylthio)-3-((S)-pyrrolidin-2-yl)propan-2-yl)amino)-3-((trifluoromethyl)sulfonyl)phenyl)sulfonyl)benzamide]
[1]
  Ki: 0.11 nM
[2]
  IC50: 18 nM
[3]
  IC50: 46 nM
[4]
  Ki: 0.3 nM

## O=C(NS(=O)(=O)c1ccc(N[C@@H](CSc2ccccc2)C[C@@H]2CCCN2CCCO)c(S(=O)(=O)C(F)(F)F)c1)c1ccc(N2CCC([C@@H](O)c3ccccc3-c3ccc(Cl)cc3)CC2)cc1 [Example 2-11, 4-(4-((R)-(4′-chloro-[1,1′-biphenyl]-2-yl)(hydroxy)methyl)piperidin-1-yl)-N-((4-(((R)-1-((S)-1-(3-hydroxypropyl)pyrrolidin-2-yl)-3-(phenylthio)propan-2-yl)amino)-3-((trifluoromethyl)sulfonyl)phenyl)sulfonyl)benzamide]
[1]
  Ki: 0.04 nM
[2]
  IC50: 5 nM
[3]
  IC50: 16 nM
[4]
  Ki: 0.1 nM
